This experiment deals with Plasmodium berghei. Description: Luciferase/luciferin-expressing antifolate-resistant parasites were used to infect a culture of HepG2 cells that were pre-incubated with compounds. Infected hepatocytes emit light due to the luciferase reaction. Assay results are presented as the percent inhibition of light emission compared to control. […]. In kind it is functional. The following applies: sporozoite; for IC90: read-out: LUCIFERASE INFECTION ASSAY - IC90.

The structures appear in SMILES notation. Where only a bound is given, the exact number is not on record here.

Take `COc1ccc2c(-c3ccccc3)cc(SC(C)C(=O)N3CCNC3=O)nc2c1` (centres undefined): the IC90 (usually the concentration at which the effect reaches the 90% level) came to 1.25 µM. In addition, the IC50 (commonly the concentration that gives 50% inhibition) (FFLUC_HILL_SLOPE 2.47, FFLUC_R_SQUARED 0.615, PBLUC_HILL_SLOPE 18.2, PBLUC_R_SQUARED 0.514, read-out: LUCIFERASE INFECTION ASSAY - IC50) was determined as 1.11 µM.
For `Cc1cc(C2=NNC(=NC3CC3)SC2)c(C)n1-c1ccc2c(c1)OCO2`, the IC90 amounted to 9.71 µM. Further, the IC50 (FFLUC_HILL_SLOPE 2.46, FFLUC_R_SQUARED 0.719, PBLUC_HILL_SLOPE 1.67, PBLUC_R_SQUARED 0.595, read-out: LUCIFERASE INFECTION ASSAY - IC50) was 2.61 µM.
For the molecule `CC(c1nc2ccccc2s1)N(C)c1ncnc2sc3c(c12)CCC3` (centres undefined), the IC90 was over 10 µM. Moreover, where the note is “FFLUC_HILL_SLOPE 2.52, FFLUC_R_SQUARED 0.413, HEPG2TOX_HILL_SLOPE 5.64, HEPG2TOX_R_SQUARED 0.118, PBLUC_HILL_SLOPE 2.14, PBLUC_R_SQUARED 0.426, read-out: LUCIFERASE INFECTION ASSAY - IC50”, the IC50 was over 10 µM.
In the case of `CN(C1CCCCC1)S(=O)(=O)c1ccc(NC(=S)NC(=O)c2ccco2)cc1`, the IC90 was over 10 µM. In addition, the IC50 (FFLUC_HILL_SLOPE 2.51, FFLUC_R_SQUARED 0.131, read-out: LUCIFERASE INFECTION ASSAY - IC50) was over 10 µM.
As to `O=C(Nc1ccc(Cl)cc1)Nc1nc(-c2cc(Cl)sc2Cl)cs1`, the IC90 came out at 7.79 µM. Besides, under “FFLUC_HILL_SLOPE 2.44, FFLUC_R_SQUARED 0.604, PBLUC_HILL_SLOPE 2.52, PBLUC_R_SQUARED 0.549, read-out: LUCIFERASE INFECTION ASSAY - IC50”, the IC50 came out at 3.26 µM.
In the case of `Cc1ccc(C2(c3ccccc3)NC(=O)N(CC(=O)c3ccc(Br)s3)C2=O)cc1C` (centres undefined), the IC90 turned out to be 3.91 µM. In addition, the IC50 (FFLUC_HILL_SLOPE 2.42, FFLUC_R_SQUARED 0.19, PBLUC_HILL_SLOPE 12.8, PBLUC_R_SQUARED 0.482, read-out: LUCIFERASE INFECTION ASSAY - IC50) was found to be 3.29 µM.
Regarding `C=CCn1c(SCC(=O)c2cc(C)n(CC3CCCO3)c2C)nc2scc(-c3ccc(C)cc3)c2c1=O` (centres undefined), the IC90 was over 10 µM. Also, where the note is “FFLUC_HILL_SLOPE 2.53, FFLUC_R_SQUARED 0.599, read-out: LUCIFERASE INFECTION ASSAY - IC50”, the IC50 was over 10 µM.
Take `COc1ccccc1NC1=C(Cl)C(=O)c2ccccc2C1=O`: the IC90 was determined as 8.17 µM. The IC50 (FFLUC_HILL_SLOPE 2.43, FFLUC_R_SQUARED 0.19, HEPG2TOX_HILL_SLOPE 11.1, HEPG2TOX_R_SQUARED 0.994, PBLUC_HILL_SLOPE 1.56, PBLUC_R_SQUARED 0.76, read-out: LUCIFERASE INFECTION ASSAY - IC50) stood at 2 µM.
`O=[N+]([O-])c1ccccc1Sc1sc2ncnc(N/N=C/c3cccs3)c2c1-c1ccccc1`: the IC90 was found to be 1.17 µM. Moreover, the IC50 (FFLUC_HILL_SLOPE 2.47, FFLUC_R_SQUARED 0.702, HEPG2TOX_HILL_SLOPE 1.48, HEPG2TOX_R_SQUARED 0.963, PBLUC_HILL_SLOPE 5.47, PBLUC_R_SQUARED 0.841, read-out: LUCIFERASE INFECTION ASSAY - IC50) is 0.785 µM.
For `NC(=O)c1ccsc1NC(=O)Cc1coc2ccc3ccccc3c12`, the IC90 is over 10 µM. For the same molecule, the IC50 (FFLUC_HILL_SLOPE 2.43, FFLUC_R_SQUARED 0.812, HEPG2TOX_HILL_SLOPE 2.74, HEPG2TOX_R_SQUARED 0.883, PBLUC_HILL_SLOPE 2.33, PBLUC_R_SQUARED 0.39, read-out: LUCIFERASE INFECTION ASSAY - IC50) stood at 5.74 µM.
Regarding `Cc1ccc(/C=C2\Oc3cc(O)cc(C)c3C2=O)cc1`, the IC90 stood at 7.36 µM. The IC50 (FFLUC_HILL_SLOPE 2.5, FFLUC_R_SQUARED 0.135, PBLUC_HILL_SLOPE 2.13, PBLUC_R_SQUARED 0.666, read-out: LUCIFERASE INFECTION ASSAY - IC50) was determined as 2.63 µM.
On to `Cc1ccc2cc(CN(CC(C)C)C(=O)c3cccc(Cl)c3)c(=O)[nH]c2c1`, for which the IC90 worked out at 4.61 µM. For the same molecule, the IC50 (FFLUC_HILL_SLOPE 2.55, FFLUC_R_SQUARED 0.111, HEPG2TOX_HILL_SLOPE 13.7, HEPG2TOX_R_SQUARED 0.575, PBLUC_HILL_SLOPE 6.1, PBLUC_R_SQUARED 0.569, read-out: LUCIFERASE INFECTION ASSAY - IC50) came to 3.21 µM.
`CC(C)n1ncc2c(C(=O)Nc3nnc(C(F)(F)F)s3)cc(-c3ccc4c(c3)OCCO4)nc21`: the IC90 is 5.59 µM. The IC50 (FFLUC_HILL_SLOPE 2.46, FFLUC_R_SQUARED 0.0818, HEPG2TOX_HILL_SLOPE 10.3, HEPG2TOX_R_SQUARED 0.775, PBLUC_HILL_SLOPE 73.3, PBLUC_R_SQUARED 0.159, read-out: LUCIFERASE INFECTION ASSAY - IC50) was 5.42 µM.
Consider `CCN(Cc1ccccc1)c1ccc(/C=N/Nc2ccc(C)c(Cl)c2)cc1`, for which the IC90 was over 10 µM. Besides, the IC50 (FFLUC_HILL_SLOPE 2.55, FFLUC_R_SQUARED 0.818, read-out: LUCIFERASE INFECTION ASSAY - IC50) is over 10 µM.
Consider `O=C(CSc1nnc(-c2ccc(Cl)cc2Cl)n1-c1ccc(F)c(Cl)c1)NCCC1=CCCCC1`, for which the IC90 was over 10 µM. The IC50 (FFLUC_HILL_SLOPE 2.41, FFLUC_R_SQUARED 0.138, HEPG2TOX_HILL_SLOPE 7.97, HEPG2TOX_R_SQUARED 0.0659, PBLUC_HILL_SLOPE 2.87, PBLUC_R_SQUARED 0.0345, read-out: LUCIFERASE INFECTION ASSAY - IC50) came out at 8.61 µM.
As to `O=C(COC(=O)c1ccc2ccccc2c1)c1cc2c3c(c1)CC(=O)N3CCC2`, the IC90 is over 10 µM. In addition, the half-maximal inhibitory concentration (IC50) (FFLUC_HILL_SLOPE 2.44, FFLUC_R_SQUARED 0.438, read-out: LUCIFERASE INFECTION ASSAY - IC50) is over 10 µM.
As to `O=C1NC2(CCCc3ccccc32)C(=O)N1Cc1cc2ccccc2nc1Cl` (centres undefined), the IC90 is 9.89 µM. For the setting “FFLUC_HILL_SLOPE 2.55, FFLUC_R_SQUARED 0.444, HEPG2TOX_HILL_SLOPE 2.36, HEPG2TOX_R_SQUARED 0.953, PBLUC_HILL_SLOPE 3.3, PBLUC_R_SQUARED 0.364, read-out: LUCIFERASE INFECTION ASSAY - IC50”, the half-maximal inhibitory concentration (IC50) came to 5.08 µM.
On to `COc1ccc(C(C#N)=C2C=CC(=NO)C=C2)cc1`, for which the IC90 is over 13.1 µM. Under “FFLUC_HILL_SLOPE 2.5, FFLUC_R_SQUARED 0.687, PBLUC_HILL_SLOPE 18.8, PBLUC_R_SQUARED 0.229, read-out: LUCIFERASE INFECTION ASSAY - IC50”, the IC50 is 12.9 µM.
As for `O=[N+]([O-])c1ccc(Sc2ccc(Cl)cc2)c(-c2cc[nH]n2)c1`, the IC90 was over 9.95 µM. For the same molecule, the IC50 (FFLUC_HILL_SLOPE 2.47, FFLUC_R_SQUARED 0.0888, HEPG2TOX_HILL_SLOPE 0.21, HEPG2TOX_R_SQUARED 0.178, PBLUC_HILL_SLOPE 0.977, PBLUC_R_SQUARED 0.273, read-out: LUCIFERASE INFECTION ASSAY - IC50) is over 9.95 µM.
In the case of `Cc1cccc(CNc2nc3cnc(-c4cccc(Oc5ccccc5)c4)cc3n2C)c1`, the IC90 is 3.88 µM. Also, under “FFLUC_HILL_SLOPE 2.46, FFLUC_R_SQUARED 0.608, HEPG2TOX_HILL_SLOPE 16, HEPG2TOX_R_SQUARED 0.341, PBLUC_HILL_SLOPE 8.58, PBLUC_R_SQUARED 0.684, read-out: LUCIFERASE INFECTION ASSAY - IC50”, the IC50 is 3 µM.
`CC(C)(C)C(=O)Nc1ccc(-c2nc3ncccc3o2)c(Cl)c1`: the concentration for an effect of 90% (IC90) stood at 4.94 µM. Also, the IC50 (FFLUC_HILL_SLOPE 2.53, FFLUC_R_SQUARED 0.8, PBLUC_HILL_SLOPE 0.961, PBLUC_R_SQUARED 0.809, read-out: LUCIFERASE INFECTION ASSAY - IC50) is 0.502 µM.
As for `Oc1cccnc1NC(c1ccccc1F)c1ccc2cccnc2c1O` (centres undefined), the IC90 turned out to be 9.5 µM. Further, for the setting “FFLUC_HILL_SLOPE 2.5, FFLUC_R_SQUARED 0.451, HEPG2TOX_HILL_SLOPE 1.9, HEPG2TOX_R_SQUARED 0.963, PBLUC_HILL_SLOPE 13, PBLUC_R_SQUARED 0.418, read-out: LUCIFERASE INFECTION ASSAY - IC50”, the IC50 was 8.03 µM.
Consider `Cc1ccc2nc(NC(=O)c3cccc(C(F)(F)F)c3)c(C(=O)NC3CCCCC3)n2c1`, for which the IC90 worked out at 0.579 µM. In addition, the IC50 (FFLUC_HILL_SLOPE 2.54, FFLUC_R_SQUARED 0.701, HEPG2TOX_HILL_SLOPE 1.03, HEPG2TOX_R_SQUARED 0.261, PBLUC_HILL_SLOPE 2.67, PBLUC_R_SQUARED 0.838, read-out: LUCIFERASE INFECTION ASSAY - IC50) is 0.254 µM.
Regarding `O=C(N/N=C/c1c(-c2ccccc2)n(-c2ccccc2)c2ccccc12)C1COc2ccccc2O1` (centres undefined), the IC90 was over 10 µM. Further, the IC50 (FFLUC_HILL_SLOPE 2.45, FFLUC_R_SQUARED 0.636, PBLUC_HILL_SLOPE 2.61, PBLUC_R_SQUARED 0.591, read-out: LUCIFERASE INFECTION ASSAY - IC50) amounted to 5.83 µM.
`N#Cc1c(SCc2ccc(Cl)cc2)nc2c(c1-c1cccs1)CCCC2`: the IC90 was over 8.31 µM. The IC50 (FFLUC_HILL_SLOPE 2.42, FFLUC_R_SQUARED 0.441, PBLUC_HILL_SLOPE 1.78, PBLUC_R_SQUARED 0.144, read-out: LUCIFERASE INFECTION ASSAY - IC50) was 7.61 µM.
Turning to `COc1ccc(CCn2cnc3c(cnn3-c3ccc(C)cc3)c2=O)cc1`, the IC90 stood at 0.133 µM. Besides, the IC50 (FFLUC_HILL_SLOPE 2.44, FFLUC_R_SQUARED 0.232, HEPG2TOX_HILL_SLOPE 1.29, HEPG2TOX_R_SQUARED 0.958, PBLUC_HILL_SLOPE 8.61, PBLUC_R_SQUARED 0.878, read-out: LUCIFERASE INFECTION ASSAY - IC50) was determined as 0.103 µM.
Consider `CC(=N)C(C#N)c1csc(Nc2cc(C)cc(C)c2)n1` (centres undefined), for which the IC90 is over 10 µM. Also, the IC50 (FFLUC_HILL_SLOPE 2.53, FFLUC_R_SQUARED 0.471, read-out: LUCIFERASE INFECTION ASSAY - IC50) was over 10 µM.

(Values after ChEMBL document CHEMBL4483862, “Open-source discovery of chemical leads for next-generation chemoprotective antimalarials” (2018).)
